According to ChEMBL document CHEMBL1149865, “Pyridinium alkaloid-coupled secoiridoids from the flower buds of Lonicera japonica” (2008):

Experiment: Antiinflammatory activity in rat polymorphonuclear leukocytes assessed as inhibition of platelet activating factor-induced release of glucuronidase at 10 uM after 15 mins
Type: functional
Settings: 0.25 h

Structure (SMILES)	inhibition at 10 µM
C=C[C@H]1[C@H](O[C@@H]2O[C@H](CO)[C@@H](O)[C@H](O)[C@H]2O)OC=C(C(=O)OC)[C@H]1/C=C/c1cc(C(=O)[O-])c[n+](CCCC(=O)O)c1 [LONIJAPOSIDE A]	11%
C=C[C@H]1[C@H](O[C@@H]2O[C@H](CO)[C@@H](O)[C@H](O)[C@H]2O)OC=C(C(=O)OC)[C@H]1/C=C/c1cc(C(=O)[O-])c[n+](CCO)c1 [LONIJAPOSIDE B]	35.8%
C=C[C@H]1[C@H](O[C@@H]2O[C@H](CO)[C@@H](O)[C@H](O)[C@H]2O)OC=C(C(=O)O)[C@H]1/C=C/c1cc(C(=O)[O-])c[n+](CCO)c1 [LONIJAPOSIDE C]	69.5%
